In one series the target is T1, human LOX-1 (Homo sapiens, UniProt P78380).
T1 construct: expressed in transfected cells; host or cells: CHO-K1 (LOX-1-CHO), doxycycline-induced
In words: DiI-oxLDL binding to LOX-1-CHO cells (4 ℃, 45 min). The class given is cell-based. As for the experimental part:
Tetracycline-inducible human LOX-1 (tagged with V5-6×His at C-terminus) expressing CHO-K1 (LOX-1-CHO) cells were maintained as previously described.[8]) The cells were seeded in 96-well plate at 10^4 cells/well in the presence of doxycycline (1 µg/mL) (Calbiochem, La Jolla, CA, USA) and were incubated in Ham’s F-12 medium containing 10% FBS at 37 ℃ for 24 h. After being washed with the medium without FBS, the cells were treated with foodstuff extracts or an anti-LOX-1 antibody at the final concentration of 10 µg/mL for 1 h. […] After washing, the cells were fixed with 10% formalin, and were stained with 4′,6-diamidino-2-phenylindole (DAPI) (Sigma, St. Louis, MO, USA). The binding of DiI-oxLDL to LOX-1-CHO cells were determined similarly to the uptake assay, except that the incubation of DiI-oxLDL was performed at 4 ℃ for 45 min. The samples were subjected to fluorescence microscopic analysis (Axiovert 200M, Zeiss, Oberkochen, Germany) or quantitative fluorescence analysis using the IN Cell analyzer system (GE Healthcare, Fairfield, CT, USA). Cell-associated DiI-oxLDL was determined as a ratio of DiI-oxLDL fluorescence intensity per cell in the presence of foodstuff extracts to that in the absence of extracts. All experiments were conducted in more than triplicates. For the determination of fluorescence quenching by procyanidins, the fluorescence was also measured before washing out unbound DiI-oxLDL (Spectramax, Molecular Devices, Sunnyvale, CA, USA). The final concentration of DMSO was less than 0.1% of total volume.

The nature of series [1]: Plasma concentrations of procyanidin B2 and C1 in rats given OPC. It is filed as in vivo. To be noted: male, stroke-prone spontaneously hypertensive (SHR-SP), rat, po, 0.5 % (w/v) OPC in drinking saline, rats given 0.5% OPC orally in drinking saline for two days, sampled 7:00–8:00. As for the experimental part: All protocols were approved by the Institutional Animal Care and Use Committee of the National Cerebral and Cardiovascular Center. Animals were individually housed at 23 ± 2 ℃ with 12 h light-dark cycles (7:00–19:00 light-on). Eight-week-old male stroke-prone spontaneously hypertensive rats (SHR-SP) (CLEA Japan, Tokyo, Japan) were divided into two groups (n = 8 each) with similar blood pressure, heart rates and body weights (tail cuff and pulse transducer system, BP-98A, Softron, Tokyo, Japan). They were given high fat diet without cholic acid or vitamin E (CLEA Japan, Tokyo, Japan) and physiological saline as drinking water for 2 weeks. Half of the rats received physiological saline containing 0.5%(w/v) oligomeric procyanidins (OPC) with various chain lengths purified from apples. At the end of the study, the rats were euthanized with isoflurane inhalation and blood was collected from vena cava between 11:00–14:00. The rats were perfused systemically with physiological saline for Oil Red O staining. Total cholesterol, high-density lipoprotein (HDL) cholesterol, triglyceride, and thiobarbituric acid reactive substance (TBARS) were determined enzymatically using commercially available kits (Wako Pure Chemical Industries, Osaka, Japan; Zeptometrix corporation, Buffalo, NY, USA). […]

On to `Oc1cc(O)c2c(c1)OC(c1ccc(O)c(O)c1)C(O)C2c1c(O)cc2c(c1O)C(c1c(O)cc(O)c3c1OC(c1ccc(O)c(O)c1)C(O)C3)C(O)C(c1ccc(O)c(O)c1)O2` (stereo not drawn) [epicatechin(4β-6)epicatechin(4β-8)catechin], for which the half-inhibitory concentration (IC50) at human LOX-1 (DiI-oxLDL 10 µg/mL) is 54.2 nM. `Oc1cc(O)c2c(c1)O[C@H](c1ccc(O)c(O)c1)[C@H](O)[C@H]2c1c(O)cc(O)c2c1O[C@H](c1ccc(O)c(O)c1)[C@H](O)C2` [procyanidin B2, epicatechin(4β-8)epicatechin] came in with a concentration at 2 days in series [1] of 7.9 ± 1.8 ng/mL. Regarding `Oc1cc(O)c2c(c1)O[C@H](c1ccc(O)c(O)c1)[C@H](O)[C@H]2c1c(O)cc(O)c2c1O[C@H](c1ccc(O)c(O)c1)[C@H](O)[C@H]2c1c(O)cc(O)c2c1O[C@H](c1ccc(O)c(O)c1)[C@H](O)C2` [procyanidin C1, epicatechin(4β-8)epicatechin(4β-8)epicatechin], on human LOX-1 (300 ng/mL, DiI-oxLDL 10 µg/mL, Fig. 4A), the “fluorescence of DiI-oxLDL in LOX-1-CHO cells (binding, microscopy)” value is on record as “significantly attenuated”. Further, the concentration for half-maximal inhibition (IC50) is 8.08 nM on human LOX-1 (DiI-oxLDL 1 µg/mL, data not shown); 30 nM at human LOX-1 (DiI-oxLDL 3 µg/mL, data not shown); 58.8 nM on human LOX-1 (DiI-oxLDL 10 µg/mL). The concentration at 2 days in series [1] worked out at 4.9 ± 1.9 ng/mL. `Oc1cc(O)c2c(c1)OC(c1ccc(O)c(O)c1)C(O)C2c1c(O)cc2c(c1O)C(c1c(O)cc(O)c3c1OC(c1ccc(O)c(O)c1)C(O)C3)C(O)C(c1ccc(O)c(O)c1)O2` (stereo not drawn) [epicatechin(4β-6)epicatechin(4β-8)epicatechin] had a concentration for half-maximal inhibition (IC50) at human LOX-1 (DiI-oxLDL 10 µg/mL) of 84.2 nM. The same measure, in the same setting: to `Oc1cc(O)c2c(c1)OC(c1ccc(O)c(O)c1)C(O)C2c1c(O)cc(O)c2c1OC(c1ccc(O)c(O)c1)C(O)C2c1c(O)cc(O)c2c1OC(c1ccc(O)c(O)c1)C(O)C2` (stereo not drawn) [epicatechin(4β-8)epicatechin(4β-8)catechin] belongs 47.3 nM.

The record behind these values is PMC3066543, “Procyanidins are potent inhibitors of LOX-1: a new player in the French Paradox” (Proceedings of the Japan Academy. Series B, Physical and …, 2011).
